Laboratory results taken from US12522601B2, “1,3,4-oxadiazole derivative compounds as histone deacetylase 6 inhibitor, and the pharmaceutical composition comprising the same” (CHONG KUN DANG PHARMACEUTICAL CORP., priority 2020, dated 2026).

Experiments:
human recombinant HDAC1 = molecular target: T1, human recombinant HDAC1 (Homo sapiens, UniProt Q13547); experiment: In vitro HDAC enzyme activity inhibition assay, HDAC1 (HDAC Fluorimetric Drug Discovery Kit); format: biochemical; settings: human recombinant HDAC1, Fluor de Lys-SIRT1 substrate 10 μM, 30° C. for 60 minutes
T1 construct: purchased Enzo Life Sciences, Inc. BML-SE456
T1 sequence (Q13547 whole entry): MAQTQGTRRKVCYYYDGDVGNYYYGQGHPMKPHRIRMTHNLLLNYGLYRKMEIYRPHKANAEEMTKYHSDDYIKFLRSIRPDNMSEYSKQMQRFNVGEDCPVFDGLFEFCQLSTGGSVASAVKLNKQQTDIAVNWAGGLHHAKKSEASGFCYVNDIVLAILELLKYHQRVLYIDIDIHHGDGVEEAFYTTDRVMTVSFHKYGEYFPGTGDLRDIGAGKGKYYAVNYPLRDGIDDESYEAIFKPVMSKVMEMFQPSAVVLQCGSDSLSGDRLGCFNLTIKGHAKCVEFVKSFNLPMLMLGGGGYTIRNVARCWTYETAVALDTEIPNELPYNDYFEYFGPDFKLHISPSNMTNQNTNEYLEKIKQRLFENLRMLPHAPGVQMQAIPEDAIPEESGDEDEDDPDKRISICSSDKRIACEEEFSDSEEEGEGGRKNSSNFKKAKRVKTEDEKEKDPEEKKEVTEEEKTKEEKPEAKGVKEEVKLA
In short: (§1)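 Fluorimetric deacetylase kit; 0.3 μg human recombinant enzyme with 10 μM Fluor de Lys-SIRT1 substrate, 60 min at 30° C, then developer 30 min. Fluorescence read at Ex 360/Em 460; IC50 from 5-fold compound dilutions. HDAC1 and HDAC6 run by the same protocol.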

human recombinant HDAC6 = molecular target: T2, human recombinant HDAC6 (Homo sapiens, UniProt Q9UBN7); experiment: In vitro HDAC enzyme activity inhibition assay, HDAC6 (HDAC Fluorimetric Drug Discovery Kit); format: biochemical; settings: for HDAC6 Selectivity (fold): HDAC6 versus HDAC1; for IC50: human recombinant HDAC6, same protocol as the HDAC1 test
T2 construct: purchased Calbiochem Inc. 382180
T2 sequence (Q9UBN7 1-1215): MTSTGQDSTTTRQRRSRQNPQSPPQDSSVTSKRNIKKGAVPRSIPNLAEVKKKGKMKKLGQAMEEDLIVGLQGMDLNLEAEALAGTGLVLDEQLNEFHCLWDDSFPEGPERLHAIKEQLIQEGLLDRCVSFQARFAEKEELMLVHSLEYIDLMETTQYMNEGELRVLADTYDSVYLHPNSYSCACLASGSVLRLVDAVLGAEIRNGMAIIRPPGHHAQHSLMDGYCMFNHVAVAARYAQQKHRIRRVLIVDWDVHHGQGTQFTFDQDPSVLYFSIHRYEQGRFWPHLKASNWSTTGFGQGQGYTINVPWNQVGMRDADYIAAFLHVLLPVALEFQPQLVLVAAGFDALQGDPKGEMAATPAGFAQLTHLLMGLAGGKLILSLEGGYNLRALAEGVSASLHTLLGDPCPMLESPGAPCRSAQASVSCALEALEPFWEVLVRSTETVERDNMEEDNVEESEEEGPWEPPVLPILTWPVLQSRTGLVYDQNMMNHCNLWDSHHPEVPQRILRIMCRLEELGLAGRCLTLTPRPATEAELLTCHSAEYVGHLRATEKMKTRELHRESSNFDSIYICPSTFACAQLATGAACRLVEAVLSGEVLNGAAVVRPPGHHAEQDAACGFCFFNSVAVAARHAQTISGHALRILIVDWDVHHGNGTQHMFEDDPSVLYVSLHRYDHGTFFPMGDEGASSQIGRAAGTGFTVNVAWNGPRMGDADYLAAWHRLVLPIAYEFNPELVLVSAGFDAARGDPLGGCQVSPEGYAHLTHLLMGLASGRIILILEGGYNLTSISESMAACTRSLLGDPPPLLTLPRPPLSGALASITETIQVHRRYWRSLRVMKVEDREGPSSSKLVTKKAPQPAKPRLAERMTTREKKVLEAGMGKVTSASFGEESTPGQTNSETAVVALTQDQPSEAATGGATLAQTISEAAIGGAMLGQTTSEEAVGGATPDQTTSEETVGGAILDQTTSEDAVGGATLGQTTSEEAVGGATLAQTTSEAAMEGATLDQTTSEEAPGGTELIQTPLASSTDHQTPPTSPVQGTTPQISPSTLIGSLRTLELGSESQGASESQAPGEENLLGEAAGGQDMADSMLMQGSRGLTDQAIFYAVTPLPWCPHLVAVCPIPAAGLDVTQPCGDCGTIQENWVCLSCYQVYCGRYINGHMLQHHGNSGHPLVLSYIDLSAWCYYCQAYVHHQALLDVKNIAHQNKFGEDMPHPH
In short: as §1

Row | SMILES | IC50 (human recombinant HDAC1) [nM] | HDAC6 Selectivity (fold) (human recombinant HDAC6) | IC50 (human recombinant HDAC6) [nM]
1 | FC(F)c1nnc(-c2ccn3cc(CNC45CC6CC(CC(C6)C4)C5)nc3c2)o1 [Compound 3677, (3s,5s,7s)-N-((7-(5-(difluoromethyl)-1,3,4-oxadiazol-2-yl)imidazo[1,2-a]pyridin-2-yl)methyl)adamantane-1-amine] | > 50000 | 196 | 255
2 | O=C(N1CCN(C2CCCCC2)CC1)N(Cc1cn2ccc(-c3nnc(C(F)F)o3)cc2n1)c1ccccc1 [Compound 4037, 4-cyclohexyl-N-((7-(5-(difluoromethyl)-1,3,4-oxadiazol-2-yl)imidazo[1,2-a]pyridin-2-yl)methyl)-N-phenylpiperazine-1-carboxamide] | > 50000 | 404 | 124
3 | CCC(=O)N1CCC(C(=O)N(Cc2cn3ccc(-c4nnc(C(F)F)o4)cc3n2)c2cccc(F)c2)CC1 [Compound 4147, N-((7-(5-(difluoromethyl)-1,3,4-oxadiazol-2-yl)imidazo[1,2-a]pyridin-2-yl)methyl)-N-(3-fluorophenyl)-1-propionylpiperidine-4-carboxamide] | > 50000 | 126 | 396
4 | CS(=O)(=O)N1CCC(C(=O)N(Cc2cn3ccc(-c4nnc(C(F)F)o4)cc3n2)c2cccc(F)c2)CC1 [Compound 4153, N-((7-(5-(difluoromethyl)-1,3,4-oxadiazol-2-yl)imidazo[1,2-a]pyridin-2-yl)methyl)-N-(3-fluorophenyl)-1-(methylsulfonyl)piperidine-4-carboxamide] | > 50000 | 363 | 138
5 | O=C(CO)N1CCC(C(=O)N(Cc2cn3ccc(-c4nnc(C(F)F)o4)cc3n2)c2cccc(F)c2)CC1 [Compound 4149, N-((7-(5-(difluoromethyl)-1,3,4-oxadiazol-2-yl)imidazo[1,2-a]pyridin-2-yl)methyl)-N-(3-fluorophenyl)-1-(2-hydroxyacetyl)piperidine-4-carboxamide] | > 50000 | 335 | 149
6 | CC(=O)N1CCN(C(=O)N(Cc2cn3ccc(-c4nnc(C(F)F)o4)cc3n2)c2cccc(F)c2)CC1 [Compound 4092, 4-acetyl-N-((7-(5-(difluoromethyl)-1,3,4-oxadiazol-2-yl)imidazo[1,2-a]pyridin-2-yl)methyl)-N-(3-fluorophenyl)piperazine-1-carboxamide] | > 50000 | 187 | 267
7 | CCN1CC(C(=O)N(Cc2cn3ccc(-c4nnc(C(F)F)o4)cc3n2)c2cccc(F)c2)C1 [Compound 4189, N-((7-(5-(difluoromethyl)-1,3,4-oxadiazol-2-yl)imidazo[1,2-a]pyridin-2-yl)methyl)-1-ethyl-N-(3-fluorophenyl) azetidine-3-carboxamide] | > 50000 | 315 | 159
8 | CS(=O)(=O)N1CCN(C(=O)N(Cc2cn3ccc(-c4nnc(C(F)F)o4)cc3n2)c2cccc(F)c2)CC1 [Compound 4097, N-((7-(5-(difluoromethyl)-1,3,4-oxadiazol-2-yl)imidazo[1,2-a]pyridin-2-yl)methyl)-N-(3-fluorophenyl)-4-(methylsulfonyl)piperazine-1-carboxamide] | > 50000 | 335 | 149
9 | CN1CC2(C1)CN(C(=O)N(Cc1cn3ccc(-c4nnc(C(F)F)o4)cc3n1)c1ccccc1)C2 [Compound 4625, N-((7-(5-(difluoromethyl)-1,3,4-oxadiazol-2-yl)imidazo[1,2-a]pyridin-2-yl)methyl)-6-methyl-N-phenyl-2,6-diazaspiro[3.3]heptan-2-carboxamide] | > 50000 | 510 | 98
10 | COc1ccc(Cc2cn3ccc(-c4nnc(C(F)F)o4)cc3n2)cc1 [Compound 3590] | > 50000 | 116 | 432
11 | O=C(C1CN(C2COC2)C1)N(Cc1cn2ccc(-c3nnc(C(F)F)o3)cc2n1)c1cccc(F)c1 [Compound 4193, N-((7-(5-(difluoromethyl)-1,3,4-oxadiazol-2-yl)imidazo[1,2-a]pyridin-2-yl)methyl)-N-(3-fluorophenyl)-1-(oxetan-3-yl) azetidine-3-carboxamide] | > 50000 | 361 | 139
12 | O=C(C1CN(C2CCCCC2)C1)N(Cc1cn2ccc(-c3nnc(C(F)F)o3)cc2n1)c1cccc(F)c1 [Compound 4194, 1-cyclohexyl-N-((7-(5-(difluoromethyl)-1,3,4-oxadiazol-2-yl)imidazo[1,2-a]pyridin-2-yl)methyl)-N-(3-fluorophenyl) azetidine-3-carboxamide] | > 50000 | 379 | 132
13 | O=C(C1CCN(c2ncccn2)CC1)N(Cc1cn2ccc(-c3nnc(C(F)F)o3)cc2n1)c1ccccc1 [Compound 4132, N-((7-(5-(difluoromethyl)-1,3,4-oxadiazol-2-yl)imidazo[1,2-a]pyridin-2-yl)methyl)-N-phenyl-1-(pyrimidin-2-yl)piperidine-4-carboxamide] | > 50000 | 76 | 655
14 | CC(=O)N1CC(C(=O)N(Cc2cn3ccc(-c4nnc(C(F)F)o4)cc3n2)c2cccc(F)c2)C1 [Compound 4197, 1-acetyl-N-((7-(5-(difluoromethyl)-1,3,4-oxadiazol-2-yl)imidazo[1,2-a]pyridine-2-yl)methyl)-N-(3-fluorophenyl) azetidine-3-carboxamide] | > 50000 | 207 | 242

Now from value to molecule:

Row | IC50 (human recombinant HDAC1) [nM] | HDAC6 Selectivity (fold) (human recombinant HDAC6) | IC50 (human recombinant HDAC6) [nM] | SMILES
15 | > 50000 | 125 | 400 | CCC(=O)N1CC(C(=O)N(Cc2cn3ccc(-c4nnc(C(F)F)o4)cc3n2)c2ccccc2)C1 [Compound 4168, N-((7-(5-(difluoromethyl)-1,3,4-oxadiazol-2-yl)imidazo[1,2-a]pyridin-2-yl)methyl)-N-phenyl-1-propionylazetidine-3-carboxamide]
16 | > 50000 | 437 | 114 | O=C(N1CCN(C2COC2)CC1)N(Cc1cn2ccc(-c3nnc(C(F)F)o3)cc2n1)c1ccccc1 [Compound 3785]
17 | > 50000 | 247 | 202 | CC(C)N1CC(C(=O)N(Cc2cn3ccc(-c4nnc(C(F)F)o4)cc3n2)c2ccccc2)C1 [Compound 4160, N-((7-(5-(difluoromethyl)-1,3,4-oxadiazol-2-yl)imidazo[1,2-a]pyridin-2-yl)methyl)-1-isopropyl-N-phenylazetidine-3-carboxamide]
18 | > 50000 | 82 | 612 | O=C(C1CCN(C(=O)C(F)(F)F)CC1)N(Cc1cn2ccc(-c3nnc(C(F)F)o3)cc2n1)c1ccccc1 [Compound 4127, N-((7-(5-(difluoromethyl)-1,3,4-oxadiazol-2-yl)imidazo[1,2-a]pyridin-2-yl)methyl)-N-phenyl-1-(2,2,2-trifluoroacetyl)piperidine-4-carboxamide]
19 | > 50000 | 184 | 272 | O=C(C1CN(C(=O)C(F)(F)F)C1)N(Cc1cn2ccc(-c3nnc(C(F)F)o3)cc2n1)c1ccccc1 [Compound 4172, N-((7-(5-(difluoromethyl)-1,3,4-oxadiazol-2-yl)imidazo[1,2-a]pyridin-2-yl)methyl)-N-phenyl-1-(2,2,2-trifluoroacetyl) azetidine-3-carboxamide]
20 | > 50000 | 168 | 298 | COC(=O)N1CC(C(=O)N(Cc2cn3ccc(-c4nnc(C(F)F)o4)cc3n2)c2ccccc2)C1 [Compound 4174, methyl 3-(((7-(5-(difluoromethyl)-1,3,4-oxadiazol-2-yl)imidazo[1,2-a]pyridin-2-yl)methyl)(phenyl)carbamoyl) azetidine-1-carboxylate]
